The values that follow come from patent US10899738B2 (THE REGENTS OF THE UNIVERSITY OF MICHIGAN, priority 2016, dated 2021).

The experiment concerns the target menin protein (Homo sapiens (Human), UniProt O00255). Briefly: biochemical. The following applies: FP competitive binding, menin protein 4 nM, FAM-MM2 probe 2 nM; for IC50: read-out: Menin Binding Affinity IC50. In kind it is binding. In outline: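 Test compounds displaced FAM-MM2 (2 nM) from 4 nM menin after 30 min equilibration at room temperature in PBS buffer containing bovine γ-globulin, 4% DMSO and Triton X-100. Binding was followed by fluorescence polarization. Competition curves were fitted by nonlinear regression to give IC50 and Ki.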

menin protein, sequence (O00255 whole entry): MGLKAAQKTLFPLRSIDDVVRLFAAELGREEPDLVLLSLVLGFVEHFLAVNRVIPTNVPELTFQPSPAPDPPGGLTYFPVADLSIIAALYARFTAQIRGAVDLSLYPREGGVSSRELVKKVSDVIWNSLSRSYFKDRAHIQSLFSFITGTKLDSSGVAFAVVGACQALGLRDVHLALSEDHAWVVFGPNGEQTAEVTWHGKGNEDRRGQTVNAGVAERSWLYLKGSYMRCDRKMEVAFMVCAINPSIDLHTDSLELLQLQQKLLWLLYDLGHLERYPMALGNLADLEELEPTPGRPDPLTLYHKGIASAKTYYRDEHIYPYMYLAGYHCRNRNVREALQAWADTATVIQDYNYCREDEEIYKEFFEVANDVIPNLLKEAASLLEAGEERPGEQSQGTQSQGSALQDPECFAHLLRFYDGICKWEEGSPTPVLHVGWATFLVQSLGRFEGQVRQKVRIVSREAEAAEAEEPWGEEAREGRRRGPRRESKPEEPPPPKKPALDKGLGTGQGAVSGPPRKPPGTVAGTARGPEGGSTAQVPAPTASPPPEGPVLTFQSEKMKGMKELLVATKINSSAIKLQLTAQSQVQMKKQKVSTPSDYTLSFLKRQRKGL

As a reminder, the IC50 is the concentration that gives 50% inhibition. For `O=C(CN1CCC(C2(C3CCCC3)NCCc3ccccc32)CC1)N1Cc2ccccc2C1` (centres unmarked) [compound 82, 2-(4-(1-cyclopentyl-1,2,3,4-tetrahydroisoquinolin-1-yl)piperidin-1-yl)-1-(isoindolin-2-yl)ethan-1-one], the IC50 stood at 6.2 µM. As to `CNC(=O)O[C@H]1CCC[C@@H]1C(CN1CCCC1)(c1ccccc1)C1CCN(CC2CN(c3ccc(S(=O)(=O)c4ccccc4)cc3)C2)CC1` (mixture of isomers) [compound 361, rac-(1S,2R)-2-(1-phenyl-1-(1-((1-(4-(phenylsulfonyl)phenyl)azetidin-3-yl)methyl)piperidin-4-yl)-2-(pyrrolidin-1-yl)ethyl)cyclopentyl methylcarbamate], the IC50 was 0.063 µM. Still for that read-out and setting: the figure for `CNC(=O)O[C@H]1CCC[C@@H]1C(C#N)(c1ccccc1)C1CCN(CC2CN(c3ccc([N+](=O)[O-])cc3)C2)CC1` (mixture of isomers) [compound 385, rac-(1S,2R)-2-(cyano(1-((1-(4-nitrophenyl)azetidin-3-yl)methyl)piperidin-4-yl)(phenyl)methyl)cyclopentyl methylcarbamate] is 0.013 µM; for `N#Cc1ccc(OCCCN2CC=C(C3(C4CCCC4)NCCc4ccccc43)CC2)cc1` (centres unmarked) [compound 79, 4-(3-(4-(1-cyclopentyl-1,2,3,4-tetrahydroisoquinolin-1-yl)-3,6-dihydropyridin-1(2H)-yl)propoxy)benzonitrile] it is 0.7 µM; for `CNC(=O)O[C@@H]1CCC[C@H]1C(C#N)(c1ccccc1)C1CCN(CC2CN(c3ccc(C#N)cc3)C2)CC1` (mixture of isomers) [compound 364, rac-(1R,2S)-2-(cyano(1-((1-(4-cyanophenyl)azetidin-3-yl)methyl)piperidin-4-yl)(phenyl)methyl)cyclopentyl methylcarbamate] it is 3.1 µM.

Take `CCNC(=O)O[C@H]1CCC[C@@H]1C(C#N)(c1ccccc1)C1CCN(CC2CN(c3ccc(S(=O)(=O)c4ccncc4)cc3)C2)CC1` (mixture of isomers) [compound 213, rac-(1S,2R)-2-(cyano(phenyl)(1-((1-(4-(pyridin-4-ylsulfonyl)phenyl)azetidin-3-yl)methyl)piperidin-4-yl)methyl)cyclopentyl ethylcarbamate]: the IC50 is 0.17 µM.

`CS(=O)(=O)c1ccc(OCCCN2CCC(C3(C4CCCC4)NCCc4ccccc43)CC2)cc1` (centres unmarked) [compound 296, 1-cyclopentyl-1-(1-(3-(4-(methylsulfonyl)phenoxy)propyl)piperidin-4-yl)-1,2,3,4-tetrahydroisoquinoline]: the IC50 was 0.4 µM.

In the case of `CC(=O)O[C@@H]1CCC[C@H]1C(C#N)(c1ccccc1)C1CCN(CC2CN(c3ccc(S(=O)(=O)c4ccncc4)cc3)C2)CC1` (mixture of isomers) [compound 186, rac-(1R,2S)-2-(cyano(phenyl)(1-((1-(4-(pyridin-4-ylsulfonyl)phenyl)azetidin-3-yl)methyl)piperidin-4-yl)methyl)cyclopentyl acetate], the IC50 is 1 µM. For `CC(=O)O[C@@H]1CCC[C@H]1C(C#N)(c1cccc(C(F)(F)F)c1)C1CCN(CC2CN(c3ccc(C#N)cc3)C2)CC1` (mixture of isomers) [compound 418, rac-(1R,2S)-2-(cyano(1-((1-(4-cyanophenyl)azetidin-3-yl)methyl)piperidin-4-yl)(3-(trifluoromethyl)phenyl)methyl)cyclopentyl acetate], the IC50 was 923 µM.

Consider `N#Cc1ccc(OCCCN2CCC(C3(C4CCc5ccccc54)NCCc4ccccc43)CC2)cc1` (centres unmarked) [compound 244, 4-(3-(4-(1-(2,3-dihydro-1H-inden-1-yl)-1,2,3,4-tetrahydroisoquinolin-1-yl)piperidin-1-yl)propoxy)benzonitrile], for which the IC50 worked out at 2.3 µM. As to `CC(=O)O[C@@H]1CCC[C@H]1C(C#N)(c1ccccc1)C1CCN(CC#Cc2ccc(C#N)cc2)CC1` (mixture of isomers) [compound 387, rac-(1R,2S)-2-(cyano(1-(3-(4-cyanophenyl)prop-2-yn-1-yl)piperidin-4-yl)(phenyl)methyl)cyclopentyl acetate], the “Menin Binding Affinity IC50 (μM)” value is given as “No inhibition”. Take `CC(C)C(=O)O[C@@H]1CCC[C@H]1C(C#N)(c1ccccc1)C1CCN(CC2CN(c3ccc(S(=O)(=O)c4ccncc4)cc3)C2)CC1` (mixture of isomers) [compound 194, rac-(1R,2S)-2-(cyano(phenyl)(1-((1-(4-(pyridin-4-ylsulfonyl)phenyl)azetidin-3-yl)methyl)piperidin-4-yl)methyl)cyclopentyl isobutyrate]: the IC50 was determined as 165 µM. Still for that read-out and setting: to `CCc1cc(S(=O)(=O)c2ccc(N3CC(CN4CCC(C5(C6CCCC6)CN(CC)Cc6ccccc65)CC4)C3)cc2)ccn1` (centres unmarked) [compound 155, 4-cyclopentyl-2-ethyl-4-(1-((1-(4-((2-ethylpyridin-4-yl)sulfonyl)phenyl)azetidin-3-yl)methyl)piperidin-4-yl)-1,2,3,4-tetrahydroisoquinoline] belongs 0.016 µM; to `CN1CCC(C2(C3CCCCN3)CN(C)Cc3ccccc32)CC1` (centres unmarked) [compound 166, 2-methyl-4-(1-methylpiperidin-4-yl)-4-(piperidin-2-yl)-1,2,3,4-tetrahydroisoquinoline], 1410 µM. Same read-out and setting: the figure for `CNC(=O)O[C@@H]1CCC[C@H]1C(Cn1ccnc1)(c1ccccc1)C1CCN(CC2CN(c3ccc(S(=O)(=O)c4cnn(C)c4)cc3)C2)CC1` (mixture of isomers) [compound 239, rac-(1R,2S)-2-(2-(1H-imidazol-1-yl)-1-(1-((1-(4-((1-methyl-1H-pyrazol-4-yl)sulfonyl)phenyl)azetidin-3-yl)methyl)piperidin-4-yl)-1-phenethyl)cyclopentyl methylcarbamate] is 0.046 µM. For the compound `c1ccc(CN2CC(C3(C4CCCC4)NCCc4ccccc43)C2)cc1` (centres unmarked) [compound 57, 1-(1-benzylazetidin-3-yl)-1-cyclopentyl-1,2,3,4-tetrahydroisoquinoline], the “Menin Binding Affinity IC50 (μM)” value was “No inhibition”.

On to `N#Cc1ccc(N2CC(CN3CCC(C4(C5CCCC5)NCCc5ccccc54)CC3)C2)c(Cl)c1` (centres unmarked) [compound 139, 3-chloro-4-(3-((4-(1-cyclopentyl-1,2,3,4-tetrahydroisoquinolin-1-yl)piperidin-1-yl)methyl)azetidin-1-yl)benzonitrile], for which the IC50 came out at 0.073 µM. On the same count and under the same terms, the figure for `CN1Cc2ccccc2C(C2CCCC2)(C2CCN(CC3CN(c4ccc(S(C)(=O)=O)cc4)C3)CC2)C1` (centres unmarked) [compound 64, 4-cyclopentyl-2-methyl-4-(1-((1-(4-(methylsulfonyl)phenyl)azetidin-3-yl)methyl)piperidin-4-yl)-1,2,3,4-tetrahydroisoquinoline] is 0.061 µM; for `CC(=O)N[C@@H]1CCC[C@H]1C(C#N)(c1ccccc1)C1CCN(CC2CN(c3ccc(S(=O)(=O)C4CC4)cc3)C2)CC1` (mixture of isomers) [compound 282, rac-N-((1R,2S)-2-(cyano(1-((1-(4-(cyclopropylsulfonyl)phenyl)azetidin-3-yl)methyl)piperidin-4-yl)(phenyl)methyl)cyclopentyl) acetamide] it is 3.3 µM; for `N#CC(c1ccccc1)(C1CCN(CC2CN(c3ccc(S(=O)(=O)c4ccccc4)cc3)C2)CC1)[C@@H]1CCC[C@H]1OC(N)=O` (mixture of isomers) [compound 224, rac-(1R,2S)-2-(cyano(phenyl)(1-((1-(4-(phenylsulfonyl)phenyl)azetidin-3-yl)methyl)piperidin-4-yl)methyl)cyclopentyl carbamate] it is 0.331 µM.
